# Results published in a melting point compilation (Tetko et al.; mined from patent text by program, amines drawn as free bases though some values may be those of a salt).
row,melting point,SMILES
1,143 to 144 °C,C=C1C=CC=C1Cc1ccc(O)cc1
2,80 to 82 °C,CCCCCCCCCCCCCCCCC[C@H](O)C[C@@H]1OC(=O)[C@H]1CC
3,196 to 197 °C,CCC1(C)CC(NC(=O)c2ccccc2C(=O)O)C(C)C(C)(CC)N1 (stereo unspecified)
4,183 °C,OCCNc1cc(Nc2ccc(Cl)cc2)ncn1
5,169 to 171 °C,Cn1nnnc1C=C(c1ccc(F)cc1)c1ccc(F)cc1
6,230 to 235 °C,Cc1cc(NC(=O)NC(=O)c2c(Cl)cccc2Cl)nc(C)c1-c1ccccc1
7,204 to 206 °C,CN1CCN(C(=O)c2ccc(-c3cnc4c(c3)N(Cc3cc(F)ccc3F)C(=O)C(C)(C)N4)cc2)CC1
8,141 to 143 °C,CCNC(=O)C(C)(Cc1cc2ccccc2s1)C(N)=O (stereo unspecified)
9,> 300 °C,COC(=O)c1ccc(-c2cc3c(Nc4cccc(Cl)c4)ncnc3[nH]2)cc1
10,103 to 104 °C,CN(C)C(=O)c1c(-c2ccc(F)cc2)ccc2ccccc12
11,> 250 °C,O=c1[nH]c2sc(I)nc2c2ccccc12
12,142 to 143 °C,CN1CC(O)C(O)C(O)C1CO (stereo unspecified)
13,176 to 177 °C,CC(=O)OCC1CCn2c(c(C3=C(c4cccc(C(F)(F)F)c4)C(=O)OC3=O)c3ccccc32)C1 (stereo unspecified)
14,131 to 132 °C,COc1cccc(NC(=O)COC(C)=O)c1C#N
15,191 to 192 °C,CNc1cc(Br)nc(S(=O)(=O)c2ccc([N+](=O)[O-])cc2)c1
16,260 °C,CC(C)N1CCC(C2=C(C#N)C(c3cccc4nonc34)c3c[nH]nc3N2)CC1 (stereo unspecified)
17,107 to 110 °C,CC#CC(C)(C)NC(=O)C(COC)Oc1cc(Cl)cc(Cl)c1 (stereo unspecified)
18,120 °C,COc1ccc(-c2c(CCN3CCN(c4cc(C)ccn4)CC3)c3cccc4c3n2CCC4)cc1
19,216 to 218 °C,O=C(O)c1cnc2cnc3ccccc3n2c1=O
20,> 250 °C,N#Cc1cccc(-c2nc(Nc3cnccn3)sc2-n2cncn2)c1
21,69 to 70 °C,CCCCCCCCCC(=O)Nc1ccc(S(=O)(=O)Nc2nnc(CO)s2)cc1
22,245 to 246 °C,COc1ccc([N+](=O)[O-])c(NCCC[C@H](N)C(=O)O)c1
23,173 to 175 °C,COC(=O)c1ccc(CN2CCC(N)CC2)nc1
24,42 to 45 °C,CCCCc1c[nH]cn1

row,melting point,SMILES
1,130 to 132 °C,O=C(N(Cc1ccccc1)Cc1cccs1)C12CC3CC(CC(C3)C1)C2
2,193 °C,CCOc1cc(N(CC)CC)ccc1C1(c2c(C)n(CC)c3ccccc23)OC(=O)c2ccccc21 (stereo unspecified)
3,114 to 116 °C,COC(=O)c1ccc(C#CC(=O)c2ccc3c(c2)C(C)(C)CCC3)cc1O
4,157 to 159 °C,Cc1oc(-c2ccccc2)nc1COc1ccc(CN(O)C(N)=O)cc1
5,> 230 °C,COc1cc(-n2c(=O)cc(C(F)(F)F)n(N)c2=O)ccc1C#N
6,266 to 268 °C,O=C1C(=O)c2ccccc2C2=C1SCC1(CCN(C(=O)c3nc4ccccc4[nH]3)CC1)O2
7,202 to 204 °C,COc1nc(C)cnc1NS(=O)(=O)c1ccccc1-c1ccc(CC(C)(C)C(=O)O)cc1
8,106 to 109 °C,C=CCN1CC(=O)N2CCC[C@H]2C1=O
9,300 °C,O=C(O)COc1ccc2c(=O)c3c(F)cccc3oc2c1Cl
10,140 to 141 °C,N#Cc1c(N2CCCCC2)c(C(=O)OCCO)c2ccccn2c1=O
11,135 to 137 °C,CN(C(N)=O)[C@@H]1c2cc(C#N)ccc2OC(C)(C)[C@H]1O (relative stereo)
12,155 °C,Oc1ccc2c(c1)CCCC(c1ccccc1)=C2c1ccc(OCCCCSCc2ccccn2)cc1
13,140 °C,Cc1cccc(C)c1NC(=O)CCCSc1cc(C(C)(C)C)c(O)c(C(C)(C)C)c1
14,63 °C,CC(C)(C)c1ccc(OS(C)(=O)=O)c(C(C)(C)C)c1
15,169 to 171 °C,COc1cc(Nc2c(C#N)cnc3cc(C#C[Si](C)(C)C)sc23)c(Cl)cc1Cl
16,94 to 95 °C,CNC(=O)C(=O)c1ccccc1Oc1ccccc1
17,276 to 278 °C,CC(C)(C)c1cc(NS(=O)(=O)c2ccc(N3CCNC3=O)cc2)cc(C(C)(C)C)c1
18,221 °C,Cc1nc(Cl)c2c(c1O)COC2(c1ccccc1)c1cccc(Cl)c1Cl (stereo unspecified)
19,188 °C,CS(=O)(=O)C(=C1CN(C(c2ccccc2)c2ccccc2)C1)c1ccccc1F
20,129 to 131 °C,COc1ccc2ccccc2c1-c1cc2c(c(-c3ccccc3)c1P(=O)(c1ccccc1)c1ccccc1)COC2
21,164 to 165 °C,O=[N+]([O-])c1ccc(N2CCN(Cc3ccccc3)S2(=O)=O)cc1
22,205 to 209 °C,Cc1nn2c3c1c(=O)[nH]c(=O)n3CC=C2c1cc(Cl)ccc1Cl
23,200 to 203 °C,Cc1cc(-c2ccc(F)cc2)ccc1C(=O)Nc1ccc2cc(CN3CCCC3)cnc2c1C
24,233 to 236 °C,CC(=O)Nc1ccc(Cc2nc3cc(CC4SC(=O)NC4=O)ccc3o2)cc1 (stereo unspecified)

row,melting point,SMILES
1,186 °C,O=C(NCC#CCN1CCOCC1)N1c2ccccc2-c2noc3c2C1CCC3 (stereo unspecified)
2,79.6 to 80.2 °C,COc1ccccc1C(=O)Nc1ccc(F)cc1
3,97 to 99 °C,CC(C)(C)OC(=O)NCCn1cc(C#N)c(-c2cccc(F)c2)c1Cl
4,127 °C,CCC=C(Cc1ccc(Cl)cc1Cl)n1cncn1
5,183 to 184 °C,CCNC(=O)c1sc(-n2ccc(O)cc2=O)cc1C
6,199 °C,O=C(O)C1=Cc2cc(Cl)c(Oc3ccccc3Cl)cc2OC1C(F)(F)F (stereo unspecified)
7,111 to 112 °C,CC1C(=O)Oc2cc(N(Cc3ccccc3)Cc3ccccc3)ccc21 (stereo unspecified)
8,61 to 62 °C,COc1ccc(-c2c(C(=O)O)n(Cc3cc4c(cc3Cl)OCO4)c3ccccc23)c(OCC(=O)O)c1
9,124 to 125 °C,C=CCOc1cc2oc(=O)ccc2cc1C
10,150 to 152 °C,Cc1nn(C)c(OCC(=O)c2ccccc2)c1C(=O)c1ccc(Cl)c(C)c1Cl
11,186 to 189 °C,COCc1nc2c(N)nc3ccccc3c2n1CC(C)(C)OCCS(C)(=O)=O
12,122 °C,COc1ccc(N2C(=O)C(C)N(c3ccc(Cc4ccccc4)cc3)C2=S)cc1 (stereo unspecified)
13,117 °C,COC(COc1cccc2c(OCC(OC)OC)cccc12)OC
14,284 to 287 °C,Cn1cc(C(=O)O)c(=O)c2cc(F)c(F)cc21
15,146 to 149 °C,Cc1ccccc1C1=NOC2(C1)OC(=O)c1ccccc12 (stereo unspecified)
16,60 to 80 °C,O=C(O)c1nn(-c2ccc(Cl)cc2Cl)c(-c2ccc(Cl)cc2)c1CF
17,70 to 71 °C,COc1ccc(-c2nn(C3CCCC3)c3c(F)cccc23)cc1
18,234 to 235 °C,CCn1cc(C(=O)O)c(=O)c2cc(F)c(N3CCN(S(=O)(=O)c4ccccc4)CC3)c(F)c21
19,82 to 83 °C,C#CC(=NOC)C(=O)OC
20,80 to 83 °C,COC(=O)CCCCCCCn1cc(-c2ccccc2)c(-c2ccccc2)nc1=O
21,78 to 80 °C,CC(C)(C)OC(=O)N1CCC=C(Cc2c[nH]c3ccc(F)cc23)C1
22,121 to 123 °C,Oc1cc(OCc2ccccc2)cc(OCc2ccccc2)c1C[C@H](O)[C@@H](O)c1ccccc1
23,242 to 245 °C,CCCc1nc2c(N)nc3cc(-c4cccc(S(C)(=O)=O)c4)ccc3c2s1
